Source: patent US4883798A, “Pharmaceutical compositions” (EGIS Gyogyszergyar, priority 1987, dated 1989)
pIC50: −log10 of the molar value. Like-named read-outs stand apart in the source and are kept apart here.

How the values were obtained:
granulocytes = assay: Measurement of chemiluminescence of granulocytes (PHA-stimulated, luminol); type: cell-based, human (healthy volunteers); conditions: Homo sapiens, 0.25 h, read-out: IC50, chemiluminescence of granulocytes
Method: The test-compounds were dissolved in dimethyl-sulfoxide (DMSO) in a concentration of 10^-1 M, dilutions were made in the incubation medium employed. Heparinized blood (10 IU/ml) was taken from healthy volunteers. The blood was diluted with equal wolume of dextran, then the white blood cells were separated by sedimentation. The granulocytes were separated by Uromio gradient. […] The cell suspension was put in dark box for 15 min. Luminol was dissolved in concentrated NH4 OH and diluted in the following solution:
50 ml Tris-Parker medium (containing 1,2 g Tris, pH=7,4)
150 ml Parker tissue culture medium
4 ml glucose 40% w/v in water
The Luminol solution (500 μl) was measured in plastic vials and put in dark (37° C.). The reaction was started by addition of the cells and stimulating agent (Phytohaemaglutinin-PHA-10 μg/ml).
The vials were continuously and gently shaken and the PHA stimulation was measured in every 2,5 min. for 15 min. in a Beckmann LS-100 spectrometer (coincidence switched off). The percentage of the counts measured was calculated in comparison with the solvent treated control cells. At least 5 concentrations of each compound were investigated in at least 3 parallels.

[1] = Acute toxicity in mice (p.o., 14 days observation); conditions: mouse, in vivo, po
Method: The experiments were performed in CFLP white mice of both sexes of 18-22 g body weight in groups of at least 10 animals. The test compound was applied p.o. dissolved in a solution containing 0.2% Tween-80 in distilled water in a volume of 20-30 ml/kg. The observation period after treatment lasted for 14 days. Statistical evaluation was carried out as described by Litchfield-Wilcoxon's method.
The above tests are carried out by standard methods. Reference is made to the following citations: Litchfield, J. T., Wilcoxon, F.: J. Pharmacol. Exp. Ther., 96, 99-113 (1949); Newbould, B. B.: Brit. J. Pharmacol. 35, 487 (1969); Shay, H., Kemarov, S. A., Fels, S. S., Meranze, D., Gruenstein, M., Siplet, H.: Gastroenterology 5, 45 (1945); Stickney, J. C., Northup, D. W., Van Liere, E. J.: Arch. int. Pharmacodyn. 147, 113 (1964); Winter, C. A., Risley E. A., Nuss, G. W.: Proc. Soc. Exp. Biol. Med. 111, 544-547 (1962).

rats = assay: Analgesic activity "Writhing test" in rats (acetic acid i.p.); type: in vivo, rat; conditions: p.o., 1 hour before acetic acid i.p.
Method: Rats weighing 130-170 g were administered intraperitoneally 0.75% (v/v) acetic acid in a volume of 8 ml/kg. Five minutes after treatment with acetic acid the total number of characteristic writhing reactions was counted for 10 minutes and expressed as percentage of the control group.
(§1) The above tests are carried out by standard methods. […] Pharmacodyn. […] A., Risley E. A., Nuss, G. W.: Proc. Soc.

Wistar rats = assay: Antipyretic effect in rats (brewer yeast-induced fever); type: in vivo, rat (Wistar)
Method: The experiments were performed in groups of 10 Wistar rats of both sexes weighing 160-200 g. Fever was induced by 20% brewer yeast suspended in 0.9% saline solution, applied subcutaneously in a volume of 2 ml/rat distributed at various sites of the back. After 18 hours the test compound or the vehicle (control) was administered in volume of 10 ml./kg p.o. During this period the rats were fasted but received drinking water ad libitum. The rectal temperature of the animals was measured with a Thermotest thermometer 2 days before the administration of the test compound and after treatment every 60th minute. Animals with an increase of body temperature less than 0.8° C. were excluded from the experiment.
as §1

[2] = PHA 10 μg/ml stimulation, luminol 32 μM, 37° C., 15 min

COc1ccc(Cc2cnc(N)nc2N)cc1 [Example 1, 2,4-Diamino-5-(4-methoxy-benzyl)-pyrimidine]
pIC50 (granulocytes; [2]): ~4.00 | LD50 at 336 h [1]: ~350 mg/kg | Analgesic effect on rats, Therapeutical Index (rats): about 8.1 | Maximal temperature decrease (Wistar rats; 200 mg/kg p.o.): 0.9 °C

COc1cc(Cc2cnc(N)nc2N)ccc1OCc1ccccc1 [Example 11, 2,4-Diamino-5-(3-methoxy-4-benzyloxy-benzyl)-pyrimidine]
LD50 at 336 h [1]: > 2000 mg/kg | Analgesic effect on rats, Therapeutical Index (rats): > 37.0

COc1ccc2c(c1)c(CC(=O)O)c(C)n2C(=O)c1ccc(Cl)cc1 [Indomethacin, 1-(p-chloro-benzoyl)-5-methoxy-2-methyl-1H-indole-3-acetic acid, reference compound]
pIC50 (granulocytes): 4.00 | LD50 at 336 h [1]: 22.5 mg/kg | Analgesic effect on rats, Therapeutical Index (rats): 4.8

CCCCC1C(=O)N(c2ccccc2)N(c2ccccc2)C1=O [Phenylbutazone, 3,5-dioxo-1,2-diphenyl-4-(n-butyl)-pyrazolidine, reference compound]
pIC50 (granulocytes; [2]): 4.00

Nc1ncc(Cc2ccc3c(c2)OCO3)c(N)n1 [Example 6, 2,4-Diamino-5-(3,4-methylenedioxy-benzyl)-pyrimidine]
LD50 at 336 h [1]: ~750 mg/kg | Analgesic effect on rats, Therapeutical Index (rats): about 57.7 | Maximal temperature decrease (Wistar rats; 100 mg/kg p.o.): 1.0 °C

COc1ccc(Cc2cnc(N)nc2N)c(OC)c1 [Example 4, 2,4-Diamino-5-(2,4-dimethoxy-benzyl)-pyrimidine]
LD50 at 336 h [1]: ~2000 mg/kg | Analgesic effect on rats, Therapeutical Index (rats): about 33.3

COc1cc(Cc2cnc(N)nc2N)cc(OC)c1 [Example 3, 2,4-Diamino-5-(3,5-dimethoxy-benzyl)-pyrimidine]
LD50 at 336 h [1]: ~800 mg/kg | Analgesic effect on rats, Therapeutical Index (rats): about 8.0

COc1cccc(Cc2cnc(N)nc2N)c1 [Example 2, 2,4-Diamino-5-(3-methoxy-benzyl)-pyrimidine]
pIC50 (granulocytes; [2]): ~4.00 | LD50 at 336 h [1]: ~410 mg/kg | Analgesic effect on rats, Therapeutical Index (rats): about 5.9

CN1C(C(=O)Nc2ccccn2)=C(O)c2ccccc2S1(=O)=O [Piroxicam, 4-hydroxy-2-methyl-N-2-pyridyl-2H-1,2-benzothiazine-3-carboxamide-1,1-dioxide, reference compound]
pIC50 (granulocytes; [2]): 4.00

COc1cccc(Cc2cnc(N)nc2N)c1OC [Example 5, 2,4-Diamino-5-(2,3-dimethoxy-benzyl)-pyrimidine]
LD50 at 336 h [1]: ~500 mg/kg | Analgesic effect on rats, Therapeutical Index (rats): about 5.0

C=CCOc1ccc(Cc2cnc(N)nc2N)cc1OC.Cl [Example 8, 2,4-Diamino-5-(3-methoxy-4-allyloxy-benzyl)-pyrimidine-hydrochloride]
pIC50 (granulocytes; [2]): ~6.00 | LD50 at 336 h [1]: ~1500 mg/kg | Analgesic effect on rats, Therapeutical Index (rats): about 42.9 | Maximal temperature decrease (Wistar rats; 100 mg/kg p.o.): 0.8 °C

CC(=O)Oc1ccccc1C(=O)O [Acetylsalicylic acid, reference compound]
Maximal temperature decrease (Wistar rats; 200 mg/kg p.o.): 1.0 °C

CCOc1ccc(Cc2cnc(N)nc2N)cc1OC [Example 7, 2,4-Diamino-5-(3-methoxy-4-ethoxy-benzyl)-pyrimidine]
pIC50 (granulocytes; [2]): ~6.00 | LD50 at 336 h [1]: ~350 mg/kg | Analgesic effect on rats, Therapeutical Index (rats): about 7.6 | Maximal temperature decrease (Wistar rats; 100 mg/kg p.o.): 0.7 °C

COCCOc1ccc(Cc2cnc(N)nc2N)cc1OC [Example 10, 2,4-Diamino-5-(3-methoxy-4-methoxyethoxy-benzyl)-pyrimidine]
LD50 at 336 h [1]: < 500 mg/kg | Analgesic effect on rats, Therapeutical Index (rats): < 14.3

CCCCOc1ccc(Cc2cnc(N)nc2N)cc1OC [Example 9, 2,4-Diamino-5-(3-methoxy-4-n-butoxy-benzyl)-pyrimidine]
pIC50 (granulocytes; [2]): ~6.00 | LD50 at 336 h [1]: > 2000 mg/kg | Analgesic effect on rats, Therapeutical Index (rats): > 125.0

Br.COc1cc(Cc2cnc(N)nc2N)ccc1O [Example 12, 2,4-Diamino-5-(3-methoxy-4-hydroxy-benzyl)-pyrimidine-hydrobromide]
LD50 at 336 h [1]: > 2000 mg/kg | Analgesic effect on rats, Therapeutical Index (rats): > 40.0
